Results from patent publication US12679878B2, “CRF2 receptor agonists and their use in therapy” (SANOFI, priority 2020, dated 2026).
Starred links: 1 amine or outer side, 2 acyl side, 3 side chain; linkers in the order of their positions; H or OH if unused. Non-standard residues stand in square brackets, D forms with d. Residues, ends and D or L forms follow the SMILES beside them. Groups on a side chain read outwards from the residue. *: point of attachment. C16 diacid = O=C(O)CCCCCCCCCCCCCCC(=O)*; γGlu = O=C(O)[C@H](CCC(=O)[*:2])N[*:1]; AEEA = NCCOCCOCC(=O)O; Aib = CC(C)(N)C(=O)O

Experiments:
CRF1R receptor = target: T1, CRF1R receptor (Homo sapiens, UniProt P34998); assay: cAMP activity at anti-target CRF1R, CHO-K1 cell line clone 2 (Example 19.10); assay type: cell-based; conditions: CRF1R CHO-K1 clone 2; for EC50: 0% HSA, read-out: EC50 [nM] 0% HSA; for Emax: 100% = Sauvagine at 100 nM
T1 construct: host or cells: CHO-K1 clone 2
T1 sequence (P34998 24-415): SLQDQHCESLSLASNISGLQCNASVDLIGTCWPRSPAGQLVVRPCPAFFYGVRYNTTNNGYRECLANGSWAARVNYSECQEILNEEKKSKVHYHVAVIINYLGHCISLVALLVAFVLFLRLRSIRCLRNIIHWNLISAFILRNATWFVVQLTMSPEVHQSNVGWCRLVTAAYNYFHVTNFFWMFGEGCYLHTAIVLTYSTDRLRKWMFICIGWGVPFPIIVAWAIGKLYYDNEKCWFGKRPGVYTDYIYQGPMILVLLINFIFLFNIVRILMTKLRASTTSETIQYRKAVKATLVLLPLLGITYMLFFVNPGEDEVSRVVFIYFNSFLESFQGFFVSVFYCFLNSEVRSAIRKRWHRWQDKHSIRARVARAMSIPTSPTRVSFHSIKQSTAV
Procedure, shortened: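 A CRF1R-overexpressing CHO-K1 line (clone 2) was grown in F12/10% FBS/G418 and frozen in aliquots before use. The cAMP assay followed the preceding procedure, with 100% activation defined by Sauvagine at 100 nM.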

human CRF2α receptor = target: T2, human CRF2α receptor (Homo sapiens, UniProt Q13324); assay: cAMP agonism at human CRF2α receptor in TeloHEAC cells, FA modified peptides (Example 19.9); assay type: cell-based; conditions: 0% HSA, relative to urocortin 2
T2 construct: expressed in transfected cells; host or cells: TeloHEAC
T2 sequence (Q13324 1-411): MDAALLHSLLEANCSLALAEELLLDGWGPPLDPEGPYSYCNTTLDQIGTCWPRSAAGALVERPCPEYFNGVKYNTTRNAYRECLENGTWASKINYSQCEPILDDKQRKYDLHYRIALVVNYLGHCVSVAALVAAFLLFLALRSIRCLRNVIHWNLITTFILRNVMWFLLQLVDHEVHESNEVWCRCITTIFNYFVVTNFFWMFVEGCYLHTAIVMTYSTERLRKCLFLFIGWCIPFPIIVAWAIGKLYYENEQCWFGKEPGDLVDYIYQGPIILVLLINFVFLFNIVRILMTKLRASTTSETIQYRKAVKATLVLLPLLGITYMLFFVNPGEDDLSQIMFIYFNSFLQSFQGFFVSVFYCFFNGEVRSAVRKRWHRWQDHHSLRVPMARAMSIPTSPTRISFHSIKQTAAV
Procedure, shortened: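 Efficacy and EC50 are referenced to 100 nM urocortin 2 as 100%, with cAMP measured as the 665/620 nm HTRF ratio after 1 h at room temperature. Compounds (0.5 mM DMSO stock, 16 twofold dilutions) acted 30 min at 37 °C on CRF2α-expressing TeloHEAC cells, buffer containing IBMX and 0% or 0.2% HSA.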

`CC[C@H](C)[C@H](N)C(=O)N[C@H](C(=O)N[C@@H](CC(C)C)C(=O)N[C@@H](CO)C(=O)N[C@@H](CC(C)C)C(=O)N[C@@H](CC(=O)O)C(=O)N[C@@H](C(=O)N1CCC[C@H]1C(=O)N[C@H](C(=O)N[C@@H](CCCCN)C(=O)N[C@@H](CC(C)C)C(=O)N[C@@H](CCCCNC(=O)COCCOCCNC(=O)COCCOCCNC(=O)CC[C@H](NC(=O)CC[C@H](NC(=O)CCCCCCCCCCCCCCC(=O)O)C(=O)O)C(=O)O)C(=O)N[C@@H](CCC(N)=O)C(=O)N[C@H](C(=O)N[C@@H](CC(C)C)C(=O)N[C@@H](CC(C)C)C(=O)N[C@@H](CCCCN)C(=O)N[C@@H](CCC(N)=O)C(=O)N[C@@H](CCC(=O)O)C(=O)N[C@@H](CCCNC(=N)N)C(=O)N[C@@H](CCC(N)=O)C(=O)N[C@@H](CCCCN)C(=O)NC(C)(C)C(=O)N[C@@H](CCC(N)=O)C(=O)N[C@@H](CCCNC(=N)N)C(=O)N[C@@H](CCC(=O)O)C(=O)N[C@@H](CCC(N)=O)C(=O)N[C@@H](C)C(=O)N[C@@H](CCC(=O)O)C(=O)N[C@@H](CCCCN)C(=O)N[C@@H](CC(N)=O)C(=O)N[C@@H](CCCCN)C(=O)N[C@@H](CCC(N)=O)C(=O)N[C@H](C(=O)N[C@@H](CC(C)C)C(=O)N[C@@H](C)C(=O)N[C@@H](CCC(N)=O)C(=O)N[C@H](C(N)=O)C(C)C)[C@@H](C)CC)[C@@H](C)CC)[C@@H](C)CC)C(C)C)C(C)C` [compound 199] (H-IVLSLD[dV]PIKLK([AEEA-AEEA-γGlu-γGlu-C16 diacid])QILLKQERQK[Aib]QREQAEKNKQILAQV-NH2; N-terminus assumed) gave an EC50 (CRF1R receptor) greater than 100 nM, an Emax (CRF1R receptor) of -2.9% and an EC50 (human CRF2α receptor) of 1.39 nM.

`CC[C@H](C)[C@H](N)C(=O)N[C@H](C(=O)N[C@@H](CC(C)C)C(=O)N[C@@H](CO)C(=O)N[C@@H](CC(C)C)C(=O)N[C@@H](CC(=O)O)C(=O)N[C@@H](C(=O)N1CCC[C@H]1C(=O)N[C@H](C(=O)N[C@@H](CCCCN)C(=O)N[C@@H](CC(C)C)C(=O)N[C@@H](CCCCNC(=O)COCCOCCNC(=O)COCCOCCNC(=O)CC[C@H](NC(=O)CCCCCCCCCCCCCCC(=O)O)C(=O)O)C(=O)N[C@@H](CCC(N)=O)C(=O)N[C@H](C(=O)N[C@@H](CC(C)C)C(=O)N[C@@H](CC(C)C)C(=O)N[C@@H](CCCCN)C(=O)N[C@@H](CCC(N)=O)C(=O)N[C@@H](CCC(=O)O)C(=O)N[C@@H](CCCNC(=N)N)C(=O)N[C@@H](CCC(N)=O)C(=O)N[C@@H](CCCCN)C(=O)N[C@@H](CCCCN)C(=O)NC(C)(C)C(=O)N[C@@H](CCCNC(=N)N)C(=O)N[C@@H](CCC(N)=O)C(=O)N[C@@H](CCCCN)C(=O)N[C@@H](C)C(=O)N[C@@H](CCC(=O)O)C(=O)N[C@@H](CCCCN)C(=O)N[C@@H](CC(N)=O)C(=O)N[C@@H](CCCCN)C(=O)N[C@@H](CCC(N)=O)C(=O)N[C@H](C(=O)N[C@@H](CC(C)C)C(=O)N[C@@H](C)C(=O)N[C@@H](CCC(N)=O)C(=O)N[C@H](C(N)=O)C(C)C)[C@@H](C)CC)[C@@H](C)CC)[C@@H](C)CC)C(C)C)C(C)C` [compound 200] (H-IVLSLD[dV]PIKLK([AEEA-AEEA-γGlu-C16 diacid])QILLKQERQKK[Aib]RQKAEKNKQILAQV-NH2; N-terminus assumed) gave an EC50 (CRF1R receptor) greater than 100 nM, an Emax (CRF1R receptor) of 1.9% and an EC50 (human CRF2α receptor) of 8.7 nM.

`CC[C@H](C)[C@H](N)C(=O)N[C@H](C(=O)N[C@@H](CC(C)C)C(=O)N[C@@H](CO)C(=O)N[C@@H](CC(C)C)C(=O)N[C@@H](CC(=O)O)C(=O)N[C@@H](C(=O)N1CCC[C@H]1C(=O)N[C@H](C(=O)N[C@@H](CCCCN)C(=O)N[C@@H](CC(C)C)C(=O)N[C@@H](CCCCNC(=O)COCCOCCNC(=O)COCCOCCNC(=O)CC[C@H](NC(=O)CC[C@H](NC(=O)CCCCCCCCCCCCCCC(=O)O)C(=O)O)C(=O)O)C(=O)N[C@@H](CCC(N)=O)C(=O)N[C@H](C(=O)N[C@@H](CC(C)C)C(=O)N[C@@H](CC(C)C)C(=O)N[C@@H](CCCCN)C(=O)N[C@@H](CCC(N)=O)C(=O)N[C@@H](CCC(=O)O)C(=O)N[C@@H](CCCNC(=N)N)C(=O)N[C@@H](CCC(N)=O)C(=O)N[C@@H](CCCCN)C(=O)N[C@@H](CCCCN)C(=O)NC(C)(C)C(=O)N[C@@H](CCCNC(=N)N)C(=O)N[C@@H](CCC(N)=O)C(=O)N[C@@H](CCCCN)C(=O)N[C@@H](C)C(=O)N[C@@H](CCC(=O)O)C(=O)N[C@@H](CCCCN)C(=O)N[C@@H](CC(N)=O)C(=O)N[C@@H](CCCCN)C(=O)N[C@@H](CCC(N)=O)C(=O)N[C@H](C(=O)N[C@@H](CC(C)C)C(=O)N[C@@H](C)C(=O)N[C@@H](CCC(N)=O)C(=O)N[C@H](C(N)=O)C(C)C)[C@@H](C)CC)[C@@H](C)CC)[C@@H](C)CC)C(C)C)C(C)C` [compound 201] (H-IVLSLD[dV]PIKLK([AEEA-AEEA-γGlu-γGlu-C16 diacid])QILLKQERQKK[Aib]RQKAEKNKQILAQV-NH2; N-terminus assumed) gave an EC50 (CRF1R receptor) greater than 100 nM, an Emax (CRF1R receptor) of -2.8% and an EC50 (human CRF2α receptor) of 4.66 nM.

Work on `CC[C@H](C)[C@H](N)C(=O)N[C@H](C(=O)N[C@@H](CC(C)C)C(=O)N[C@@H](CO)C(=O)N[C@@H](CC(C)C)C(=O)N[C@@H](CC(=O)O)C(=O)N[C@@H](C(=O)N1CCC[C@H]1C(=O)N[C@H](C(=O)NCC(=O)N[C@@H](CC(C)C)C(=O)N[C@@H](CCCCNC(=O)COCCOCCNC(=O)COCCOCCNC(=O)CC[C@H](NC(=O)CCCCCCCCCCCCCCC(=O)O)C(=O)O)C(=O)N[C@@H](CCC(N)=O)C(=O)N[C@H](C(=O)N[C@@H](CC(C)C)C(=O)N[C@@H](CC(C)C)C(=O)N[C@@H](CCCCN)C(=O)N[C@@H](CCC(N)=O)C(=O)N[C@@H](CCC(=O)O)C(=O)N[C@@H](CCCNC(=N)N)C(=O)N[C@@H](CCC(N)=O)C(=O)N[C@@H](CCCCN)C(=O)N[C@@H](CCCCN)C(=O)NC(C)(C)C(=O)N[C@@H](CCCNC(=N)N)C(=O)N[C@@H](CCC(=O)O)C(=O)N[C@@H](CCC(N)=O)C(=O)N[C@@H](C)C(=O)N[C@@H](CCC(=O)O)C(=O)N[C@H](C(=O)N[C@@H](CC(N)=O)C(=O)N[C@@H](CCCCN)C(=O)N[C@@H](CCC(N)=O)C(=O)N[C@H](C(=O)N[C@@H](CC(C)C)C(=O)N[C@@H](C)C(=O)N[C@@H](CCC(N)=O)C(=O)N[C@H](C(N)=O)C(C)C)[C@@H](C)CC)[C@@H](C)O)[C@@H](C)CC)[C@@H](C)CC)C(C)C)C(C)C` [compound 202] (H-IVLSLD[dV]PIGLK([AEEA-AEEA-γGlu-C16 diacid])QILLKQERQKK[Aib]REQAETNKQILAQV-NH2; N-terminus assumed) yielded an EC50 (CRF1R receptor) greater than 100 nM, an Emax (CRF1R receptor) of 5.4% and an EC50 (human CRF2α receptor) of 0.87 nM.

`CC[C@H](C)[C@H](N)C(=O)N[C@H](C(=O)N[C@@H](CC(C)C)C(=O)N[C@@H](CO)C(=O)N[C@@H](CC(C)C)C(=O)N[C@@H](CC(=O)O)C(=O)N[C@@H](C(=O)N1CCC[C@H]1C(=O)N[C@H](C(=O)NCC(=O)N[C@@H](CC(C)C)C(=O)N[C@@H](CCCCNC(=O)COCCOCCNC(=O)COCCOCCNC(=O)CC[C@H](NC(=O)CC[C@H](NC(=O)CCCCCCCCCCCCCCC(=O)O)C(=O)O)C(=O)O)C(=O)N[C@@H](CCC(N)=O)C(=O)N[C@H](C(=O)N[C@@H](CC(C)C)C(=O)N[C@@H](CC(C)C)C(=O)N[C@@H](CCCCN)C(=O)N[C@@H](CCC(N)=O)C(=O)N[C@@H](CCC(=O)O)C(=O)N[C@@H](CCCNC(=N)N)C(=O)N[C@@H](CCC(N)=O)C(=O)N[C@@H](CCCCN)C(=O)N[C@@H](CCCCN)C(=O)NC(C)(C)C(=O)N[C@@H](CCCNC(=N)N)C(=O)N[C@@H](CCC(=O)O)C(=O)N[C@@H](CCC(N)=O)C(=O)N[C@@H](C)C(=O)N[C@@H](CCC(=O)O)C(=O)N[C@H](C(=O)N[C@@H](CC(N)=O)C(=O)N[C@@H](CCCCN)C(=O)N[C@@H](CCC(N)=O)C(=O)N[C@H](C(=O)N[C@@H](CC(C)C)C(=O)N[C@@H](C)C(=O)N[C@@H](CCC(N)=O)C(=O)N[C@H](C(N)=O)C(C)C)[C@@H](C)CC)[C@@H](C)O)[C@@H](C)CC)[C@@H](C)CC)C(C)C)C(C)C` [compound 203] (H-IVLSLD[dV]PIGLK([AEEA-AEEA-γGlu-γGlu-C16 diacid])QILLKQERQKK[Aib]REQAETNKQILAQV-NH2; N-terminus assumed) gave an EC50 (CRF1R receptor) greater than 100 nM, an Emax (CRF1R receptor) of 4.7% and an EC50 (human CRF2α receptor) of 4.7 nM.
